Data on one molecule can be found in patent US7767240B2, “Microbiological control in poultry processing” (priority 2001, dated 2010).

The test system of one assay is Salmonella. The assay can be described thus: Salmonella positive samples, simulated USDA HACCP detection (Example 6). The class given is cell-based, Salmonella enteritidis. The following applies: for Salmonella Positive Samples (Number per 51): birds inoculated with Salmonella prior to chilling. As to the method: The objective of this study was to determine the effect of Clorox® bleach and 1,3-dibromo-5,5-dimethylhydantoin (DBDMH) on individual carcass bacteria field strains after 1.5 hour in a chill tank solution and spoilage 20-day shelf life longevity (caused by bacteria contamination) in a Graded Level Study Model. After normal processing of 56-day-old birds, carcasses were immersed first in a warm bath containing 10^4 CFU's per mL Escherichia coli, 10^4 CFU's per mL Salmonella enteritidis, 10^4 CFU's per mL Pseudomonas aeruginosa, 10^4 CFU's per mL Campylobacter jejuni, and 10^4 CFU's per mL spoilage bacteria each from two strains (Listeria monocytogenes and Shigella sonnei). Carcasses were then immersed in a chill tank “soup”, containing normal organic fluids (blood, fat, skin, and meat particles) and containing various disinfectants (termed test materials). These tests were conducted at pH 8 (adjusted by trisodium phosphate). Skin pigmentation (Minolta Color Meter L value or Lightness, a value or redness and b value or yellowness) was determined before and after processing. Post-chilling skin bacteria of various strains were determined over a 20-day period. […] After salmonella infection in chill tanks, USDA HACCP salmonella detection was simulated and reported.
A DBDMH stock solution and DBDMH test solutions of the concentrations specified in Table 33, a bacteria stock solution, and a “chicken soup” were prepared as in Example 3. In addition, the bacterial broth treatments, the whole bird wash sampling procedure, and the methodologies used for quantitative or qualitative determinations for bacterial organisms were conducted as in Example 3.
The trial events and experimental design used in this group of tests were the same as in Example 5 with the following exceptions: • a) The temperature during the 20-day period of storage in the refrigerator was […]. • b) Observations of the degree of “bloating” (defined as water or air additions under the skin area considered objectionable) were conducted on all processed birds. • c) On each of sampling days 0, 2, 4, 6, 8, 10, 12, 14, 16, 18, and 20, ten carcasses from each treatment were analyzed by removing 23.8 cm^2 of skin from the breast right up to the neck using a template and a sterile scalpel. Each skin sample was placed in a bag with 15 mL Butterfield's Phosphate Buffer Solution (BPBS) added and treated in a Stomacher bag for 60 seconds. A 10-fold dilution series of the mixture was made in BPBS and two parallel samples of […] each were spread on the appropriate plate count agar for determination of the total viable numbers. The plates were incubated at 35° C. for 24 hours. Mean values were calculated from the two determinations of the three samples taken from each combination of chilling and storage. Bacterial numbers were reported as pooled or averaged log10 colony-forming units (CFU's) per square centimeter. • d) Also on sampling day 0, 102 total of the remaining 110 carcasses from each treatment (all bloating and oddly processed birds were removed) were “whole bird” washed by the sampling procedure described in Example 3. Salmonella detection were noted and reported as number of positive salmonella colonies per 51 birds and % of total.

For assay [1], the system named is Escherichia coli field strain. The experiment in a line: Whole bird bacteria reduction, chill tank (Example 2). The class given is cell-based. The following applies: 1.5 h chill tank. How it is done:
The trial events and experimental design used were as follows: • a) For all treatments a total of 190 birds were processed in a normal fashion. Each treatment involved use of 10 birds. • b) A warm (100° F.) bath was prepared containing 5×10^4 DelMarVa (Delaware-Maryland farm area) field Escherichia coli stain bacteria per mL. At least 200 mL of total bath fluid was provided for each bird. • c) All birds (both controls and treated) were randomly immersed into the warm bath. Both the inside and outside carcass areas were immersed to assure complete coverage. • d) Each separate chill tank water solution (normal tap water adjusted pH to 8.5, ice added to produce temperatures of <45° F.) contained 2×10^3 per mL bacteria. • e) The chill tank water solutions (at least 750 mL each) were be prepared for each disinfecting treatment, and birds were immersed for a period of 1.5 hours. • f) Each 10 minutes during the 1.5 hour chilling period, the birds were completely lifted out of solution and then reimersed in the solution. After the 1.5 hour chilling period, the birds were taken from the chill water and drained for 30 seconds, then promptly (within 5 minutes) placed into a sterile whole bird stomacher bag containing 400 mL diluent (Butterfield's Phosphate Diluent) bacteria collection. • g) Diluent (400 mL) was added to each carcass contained in a sterile stomacher bag while making sure to pour the diluent into the inside of the abdominal cavity. The carcass was rinsed inside and out with a rocking motion for one minute (ca. 35 RPM). […] After the fluids had been diluted, 0.1 mL of fluid was be placed on a MacConkey agar plate and bacteria counts determined. In cases where the goal of a 25-250 count on the plate was not achieved, another dilution and replating were conducted. • j) After all carcasses for each treatment had been dipped, water sample bacteria were determined. • k) Total bacteria per bird were calculated. […]

Regarding `CC1(C)C(=O)N(Br)C(=O)N1Br` [DBDMH, 1,3-dibromo-5,5-dimethylhydantoin], the “Salmonella Positive Samples (Number per 51)” value in the assay on Salmonella (5 ppm, control 32/51) was 7/51; with Salmonella (10 ppm), 4/51; in the assay on Salmonella (15 ppm), 2/51; with Salmonella (20 ppm) it was 1/51; with Salmonella (25 ppm), 0/51. Also, the “Salmonella Positive Samples (% of total)” value in the assay on Salmonella (5 ppm, control 62.74%) is given as 13.73%; in the assay with Salmonella (10 ppm), 7.84%; in the assay on Salmonella (15 ppm), 3.92%; in the assay on Salmonella (20 ppm), 1.96%; in the assay on Salmonella (25 ppm), 0.00%. The “Whole Bird Bacteria Reduction (%)” value in assay [1] (50 ppm Cl2 (equivalent)), in assay [1] (100 ppm Cl2 (equivalent)) and in assay [1] (150 ppm Cl2 (equivalent)) was 99.9999% in each case.
